Data on two compounds can be found in patent publication US12486270B2, “Receptor tyrosine kinase inhibitors for treatment of protein kinase modulation-responsive disease or disorder” (THE UNITED STATES OF AMERICA, as represented by the …, priority 2019, dated 2025).

Assay [1] has as its system SW620. Nature of the assay: Cell cycle analysis by flow cytometry in colorectal cancer cells (SW620). It counts as cell-based, human. The settings on record: 72 hours; compared to control and NVP/NVP-Iso. The protocol: Cell cycle was assessed by flow cytometry. Adherent cells were harvested, washed with PBS and fixed for 30 minutes in cold 70% ethanol at 4° C. Cells were washed twice with PBS, treated with 2.5 μg/mL RNaseA (ThermoFisher, 12091039) for 30 minutes at room temperature, and then stained with 10 μg propidium iodide for 15 minutes prior to analysis performed on FACS Canton (BD Biosciences; San Jose, CA) and cell cycled analyzed (FloJo software).
(In flow cytometry, cells or beads pass a laser one at a time.)

In assay [2] the target is EphB2 (Homo sapiens (Human), UniProt P29323). Nature of the assay: Endogenous EphB2 tyrosine phosphorylation by ELISA in Colo-205 cell lysates. It counts as cell-based. The protocol: (§1) ELISA. ELISA plates (ThermoFisher Scientific, Immulon 4HBX, 3855) were coated overnight at 4° C. with capture antibody 75 ng/well in PBS, and blocked with 5% BSA (Sigma-Aldrich, St. Louis, MO) in PBS for two hours at room temperature. Capture antibodies for EphB4 was goat polyclonal antibody (R&D Systems AF3038); for EphA2 was goat polyclonal antibody (R&D Systems AF3035); 10 ug of cell lysate was applied to the ELISA well for two hours at room temperature. The amount of tyrosine phosphorylation was measured with pTyr-HRP antibody (R&D Systems, HAM1676). The ELISA was developed with 3,3′,5,5′-Tetramethylbenzidine (TMB) (ThermoFisher Scientific, 7588927) for 15 minutes and stopped with 1M H2SO4 (Sigma-Aldrich, 258105). Absorbance at 450 nm was measured using POLARstar Optima plate reader (BMG Labtech, Cary, NC). All conditions were tested in duplicate. pEphB2 was measured by ELISA (Ray Biotech, PEL-EphB2-Y) according to the manufacturer's recommendations.
EphB2, sequence (P29323 19-1055): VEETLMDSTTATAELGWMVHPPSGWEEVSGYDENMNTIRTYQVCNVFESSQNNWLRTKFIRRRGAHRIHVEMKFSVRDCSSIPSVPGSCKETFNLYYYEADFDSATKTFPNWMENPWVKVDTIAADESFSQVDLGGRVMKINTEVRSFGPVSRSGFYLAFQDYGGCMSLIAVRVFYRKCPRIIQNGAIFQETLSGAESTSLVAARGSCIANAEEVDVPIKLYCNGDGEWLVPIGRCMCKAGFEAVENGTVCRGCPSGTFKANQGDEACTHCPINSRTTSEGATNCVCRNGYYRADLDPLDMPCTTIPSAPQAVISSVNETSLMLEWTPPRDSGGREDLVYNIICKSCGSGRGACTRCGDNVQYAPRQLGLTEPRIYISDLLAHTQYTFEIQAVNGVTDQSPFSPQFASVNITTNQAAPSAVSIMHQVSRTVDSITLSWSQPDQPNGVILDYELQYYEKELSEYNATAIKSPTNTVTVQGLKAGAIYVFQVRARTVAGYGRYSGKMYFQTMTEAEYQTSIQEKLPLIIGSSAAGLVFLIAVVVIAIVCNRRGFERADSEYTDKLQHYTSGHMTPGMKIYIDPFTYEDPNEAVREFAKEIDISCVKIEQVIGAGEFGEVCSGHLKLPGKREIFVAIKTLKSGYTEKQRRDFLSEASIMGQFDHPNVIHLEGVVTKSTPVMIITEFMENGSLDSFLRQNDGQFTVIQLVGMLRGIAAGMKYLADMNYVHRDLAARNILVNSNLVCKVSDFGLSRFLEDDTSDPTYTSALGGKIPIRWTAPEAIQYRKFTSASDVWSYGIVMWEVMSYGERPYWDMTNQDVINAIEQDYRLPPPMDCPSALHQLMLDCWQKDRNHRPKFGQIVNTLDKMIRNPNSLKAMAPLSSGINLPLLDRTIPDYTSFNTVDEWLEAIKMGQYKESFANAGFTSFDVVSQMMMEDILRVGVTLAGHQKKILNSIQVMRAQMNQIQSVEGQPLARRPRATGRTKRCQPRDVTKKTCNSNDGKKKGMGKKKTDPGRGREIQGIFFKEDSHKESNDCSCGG
(In an ELISA, binding on a coated surface is turned into a signal by an enzyme label.)

The target in assay [3] is T1, EphA2 (Homo sapiens (Human), UniProt P29317). The assay is described as follows: Binding affinity to EphA2 by microscale thermophoresis (MST). The settings on record: towards EphA2. The source says: The binding affinities of the compounds to EphA2 were investigated by microscale thermophoresis (MST) (M. Jerabek-Willemsen et al., J. Mol. Struct. 2014, 1077, 101-113).
T1 sequence (P29317 24-976): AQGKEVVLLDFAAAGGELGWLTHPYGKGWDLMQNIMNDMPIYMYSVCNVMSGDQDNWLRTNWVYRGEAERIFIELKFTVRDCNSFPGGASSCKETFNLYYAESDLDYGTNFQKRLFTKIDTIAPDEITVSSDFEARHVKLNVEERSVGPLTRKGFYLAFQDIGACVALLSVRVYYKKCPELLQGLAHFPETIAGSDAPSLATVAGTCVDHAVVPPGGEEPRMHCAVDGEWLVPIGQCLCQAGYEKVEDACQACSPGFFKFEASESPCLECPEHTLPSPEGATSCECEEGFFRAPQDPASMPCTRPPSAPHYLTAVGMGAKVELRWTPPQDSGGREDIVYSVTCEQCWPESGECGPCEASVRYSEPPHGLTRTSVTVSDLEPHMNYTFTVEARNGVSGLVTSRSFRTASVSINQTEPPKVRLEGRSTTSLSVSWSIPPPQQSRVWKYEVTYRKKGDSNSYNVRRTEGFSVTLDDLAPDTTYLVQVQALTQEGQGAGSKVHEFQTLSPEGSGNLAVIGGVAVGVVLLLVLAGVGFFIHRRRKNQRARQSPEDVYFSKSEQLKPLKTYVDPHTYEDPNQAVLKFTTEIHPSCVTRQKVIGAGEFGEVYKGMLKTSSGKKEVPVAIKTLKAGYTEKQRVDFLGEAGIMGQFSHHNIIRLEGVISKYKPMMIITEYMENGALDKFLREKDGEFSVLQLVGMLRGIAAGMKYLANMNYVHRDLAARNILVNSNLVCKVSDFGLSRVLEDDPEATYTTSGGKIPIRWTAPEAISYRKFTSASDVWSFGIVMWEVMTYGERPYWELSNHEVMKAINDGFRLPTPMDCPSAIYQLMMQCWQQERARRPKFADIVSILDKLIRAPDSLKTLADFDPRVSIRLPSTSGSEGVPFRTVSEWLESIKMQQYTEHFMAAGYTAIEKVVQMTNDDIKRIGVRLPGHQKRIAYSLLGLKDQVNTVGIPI
Background: MST reads how a fluorescent partner responds to local heating, with and without ligand.

The target of assay [4] is EphB4 (Homo sapiens (Human), UniProt P54760). The assay is described as follows: Endogenous EphB4 tyrosine phosphorylation by ELISA in HT29 cell lysates. It counts as cell-based. The protocol: as §1
EphB4, sequence (P54760 16-987): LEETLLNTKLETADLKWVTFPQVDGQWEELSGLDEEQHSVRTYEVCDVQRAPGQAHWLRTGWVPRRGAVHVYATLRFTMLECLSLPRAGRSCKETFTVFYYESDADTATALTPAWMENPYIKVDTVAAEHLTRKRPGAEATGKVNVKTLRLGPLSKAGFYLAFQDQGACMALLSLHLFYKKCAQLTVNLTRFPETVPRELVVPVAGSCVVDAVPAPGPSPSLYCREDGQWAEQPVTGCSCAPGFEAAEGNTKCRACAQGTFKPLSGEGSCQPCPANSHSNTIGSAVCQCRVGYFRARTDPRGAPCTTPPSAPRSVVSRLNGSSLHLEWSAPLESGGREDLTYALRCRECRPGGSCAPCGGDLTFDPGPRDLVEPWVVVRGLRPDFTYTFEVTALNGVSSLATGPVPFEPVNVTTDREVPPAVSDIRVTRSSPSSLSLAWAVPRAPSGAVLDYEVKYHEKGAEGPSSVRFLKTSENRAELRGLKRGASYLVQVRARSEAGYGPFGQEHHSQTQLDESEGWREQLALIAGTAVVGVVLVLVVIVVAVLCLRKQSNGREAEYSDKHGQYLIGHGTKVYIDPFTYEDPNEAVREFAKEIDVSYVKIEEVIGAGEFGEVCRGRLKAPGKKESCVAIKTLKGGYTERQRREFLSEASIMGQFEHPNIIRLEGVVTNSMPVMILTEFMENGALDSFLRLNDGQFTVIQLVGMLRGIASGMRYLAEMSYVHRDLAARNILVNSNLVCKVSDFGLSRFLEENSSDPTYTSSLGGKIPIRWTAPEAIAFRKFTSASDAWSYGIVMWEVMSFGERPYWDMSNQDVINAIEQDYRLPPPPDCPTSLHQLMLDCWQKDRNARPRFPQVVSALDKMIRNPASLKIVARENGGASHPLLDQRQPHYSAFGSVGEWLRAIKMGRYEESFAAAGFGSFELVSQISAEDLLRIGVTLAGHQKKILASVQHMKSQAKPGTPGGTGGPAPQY
Assay [5] deals with SW620 colorectal cancer cell. The assay is described as follows: Cell death by flow cytometry after DRAQ5/PI staining, colorectal cancer cells (SW620). In kind it is cell-based, human. The settings on record: 72 hours. The protocol:
Cell viability was measured by flow cytometry. Briefly, floating and adherent cells were collected by centrifugation, pelleted and suspended in PBS −/− (ThermoFisher, 10010-049) supplemented with 1% BSA (Sigma, A2153), 5 mM EDTA (Qualify Biological, 351-027), 10 mM glucose (Sigma, D9434) and 10 mM HEPES (Corning, 25-060-CI). After the cells (1×10^6 cells/mL) were stained with 25 μM DRAQ5 (BioLegend, San Diego, CA; 424101) for 60 minutes and 2 μg propidium iodide (ThermoFisher, P3566) for 15 minutes, analysis was performed on a FACSCantoll (BD Biosciences, Franklin Lakes, NJ; 338962). Results were analyzed by FloJo software (FlowJo LLC, Ashland, OR).

Assay [6] relates to SW620 cells. Nature of the assay: Cleaved caspase-3 immunofluorescence microscopy in colorectal cancer cells (SW620). The settings on record: 72 hours. In kind it is cell-based, human. The protocol:
Cell viability was also measured by detection of cell-associated cleaved caspase-3. Cells were grown on gelatin-coated glass chamber slides, fixed in 4% paraformaldehyde, immune-stained with rabbit monoclonal antibody to cleaved Caspase 3 (1:100 Cell Signaling Technology) followed by Alexa Fluor 488-conjugated anti-rabbit IgG (1:400 Invitrogen) and mounted with Vectastain containing DAPI (Vector Laboratories). The slides were imaged through a Zeiss LSM780 confocal microscope. Image quantification (cleaved Caspase-3^+ nucleiltotal nuclei) was performed by CellProfiler software.

Assay [7] has as its target T1, EphA2. The assay is described as follows: Endogenous EphA2 tyrosine phosphorylation by ELISA in RKO cell lysates. It counts as cell-based. The protocol: as §1
Assay [8] relates to LC3B. The assay is described as follows: LC3B autophagy marker by immunoblotting in HT-29 cells. It counts as cell-based, human. The following applies: 72-hour incubation. The protocol: Western blotting. Protein lysates were separated by SDS-PAGE and then transferred to a nitrocellulose membrane. After blocking, membranes were incubated overnight with antibodies to LC3 (rabbit Monoclonal antibody, Cell Signaling).

Assay [9] concerns MG63. Nature of the assay: MG63 proliferation (specificity control). It counts as cell-based, human. The settings on record: 125-2000 nM.
Assay [10] concerns LC3. Nature of the assay: LC3 autophagic puncta imaging in HT-29 cells transduced with fluorescent LC3. It counts as cell-based, human. The settings on record: 72 hours. The protocol:
Autophagy-related cell death was assessed by evaluation of LC3 autophagy-associated protein. The cells were first induced to stably express fluorescent pK (pHluorin-mKate2) LC3 by lentiviral infection. The cells were subsequently grown on glass coverslips (ThermoFisher, 12-545-81) until 50% confluent. Coverslips were washed with PBS −/−, fixed with 4% PEA for 15 minutes at room temperature, washed with TBS, mounted with DAPI-containing mounting media, allowed to harden overnight and sealed. Coverslips were imaged on a confocal Zeiss 780 microscope. Images were analyzed by CellProfiler using automatic thresholding to calculate the number of nuclei (DAPI staining) and the number of puncta. The results are expressed as the percent cells with two or more puncta. […] Monolayer cell confluency overtime was measured by IncuCyte HD (Essen BioSciences) imaging.
Immunostaining and microscopy. […] Maximum intensity projections (Zen Software 2.3 Blue Edition; Carl Zeiss) were used for quantification using CellProfiler software (Kamentsky et al., Bioinformatics 2011, 27:1179-1180) with automatic thresholding. Integrated intensity of CD31 was measured. The percent Ki-67 positive cells was measured by calculating the number of Ki-67 positive cells/total number DAPI^+ nuclei. The area of cleaved Caspase-3 positive area/total area was calculated by CellProfiler with automatic threshold. […]

Assay [11] deals with HUVEC. Nature of the assay: HUVEC proliferation (specificity control). It counts as cell-based, human. The following applies: 125-2000 nM.

The structures appear in SMILES notation. pKd: −log10 of the molar value.

For orientation: pKd means the Kd on a negative log10 scale, so that one unit is a factor of ten. `Cc1ccc(C(=O)Nc2cccc(C(F)(F)F)c2)cc1Nc1nc(-c2cnccn2)nc2c1cnn2C` [@1, 4-Methyl-3-((1-methyl-6-(pyrazin-2-yl)-1H-pyrazolo[3,4-d]pyrimidin-4-yl)amino)-N-(3-(trifluoromethyl)phenyl)benzamide]: the “distribution of cells within the cell cycle” value in assay [1] is reported as “marked reduction of the proportion of cells within the G2M phase”. Also, the “inhibitory activity for p-EphB2 compared to NVP” value in assay [2] (four hours treatment) is listed as “comparable or only slightly reduced inhibitory activity”. For the same compound, the pKd in assay [3] is 8.52. Moreover, the “inhibitory activity for p-EphB4 compared to NVP” value in assay [4] (four hours treatment) is reported as “comparable or only slightly reduced inhibitory activity”. Also, the “colorectal cancer cell death by flow cytometry (DRAQ5/PI)” value in assay [5] is given as “no or minimal colorectal cancer cell death”. The “cleaved caspase-3 detection in treated cells” value in assay [6] is listed as “only in a minority of cells”. Besides, the “inhibitory activity for p-EphA2 compared to NVP” value in assay [7] (four hours treatment) is recorded as “comparable or only slightly reduced inhibitory activity”. Further, the “induction of autophagosome marker LC3B (immunoblotting)” value in assay [8] is listed as “failure”.

Consider `Cc1ccc(C(=O)Nc2cccc(C(F)(F)F)c2)cc1Nc1nc(N2CCOCC2)nc(-n2ccnc2)n1` [@10, 3-((4-(1H-imidazol-1-yl)-6-morpholino-1,3,5-triazin-2-yl)amino)-4-methyl-N-(3-(trifluoromethyl)phenyl)benzamide], for which the “reduction of MG63 cell proliferation” value in assay [9] was “moderately inhibitory”. Moreover, the LC3-related autophagy puncta result in assay [10] is given as “also induced LC3B-related puncta”. Moreover, in [2] (at 2 μM), the “reduction of EphB2 phosphorylation” value is listed as “marginal reduction”. In assay [3], this compound gave a pKd of 6.72. Further, the “reduction of HUVECs proliferation” value in [11] is “moderately inhibitory”. For the same compound, in assay [4] (at 2 μM), the “reduction of EphB4 phosphorylation” value is reported as “marginal reduction”. The “reduction of EphA2 phosphorylation” value in assay [7] (at 2 μM) is “marginal reduction”.
